According to patent US6020340A, “Imidazopyridines” (Byk Gulden Lomberg Chemische Fabrik GmbH, priority 1996, dated 2000):

The molecules below were run on PDE IV (assay: Inhibition of PDE IV activity (method of Bauer and Schwabe, adapted to microtiter plates)).
Type: biochemical
In the case of `COc1ccc(-c2nc3ncccc3[nH]2)c2cc(C(C)C)oc12` [Compound 1, 2-[7-Methoxy-2-(1-methylethyl)benzofuran-4-yl]imidazo[4,5-b]pyridine], the “Inhibition of PDE IV activity, -log IC50” value is reported as 7.41.
With `CC(C)c1cc2c(-c3nc4ncccc4[nH]3)ccc(OC(F)F)c2o1` [Compound 2, 2-[7-Difluoromethoxy-2(1-methylethyl)benzofuran-4yl]imidazo[4,5-b]pyridine] the “Inhibition of PDE IV activity, -log IC50” value was 8.14.
With `COc1ccc(-c2nc3ncccc3[nH]2)c2c1OC1(C=C2)CCCC1` [Compound 3, 2-[8-Methoxy-2,2-tetramethylene-1[2H]chromen-5-yl]imidazo[4,5-b]pyridine] the “Inhibition of PDE IV activity, -log IC50” value was 5.83.
With `COc1ccc(-c2nc3cnccc3[nH]2)c2cc(C3CCCC3)oc12` [Compound 4, 2-(2Cyclopentyl-7-methoxy-benzofuran-4-yl)imidazo[4,5-c]pyridine] the “Inhibition of PDE IV activity, -log IC50” value was 7.74.
In the case of `COc1ccc(-c2nc3cnccc3[nH]2)c2c1OC1(C=C2)CCCC1` [Compound 5, 2-[8-Methoxy-2,2-tetramethylene-1[2H]chromen-5-yl]imidazo[4,5-c]pyridine], the “Inhibition of PDE IV activity, -log IC50” value is reported as 6.76.
For `CC(C)c1cc2c(-c3nc4cnccc4[nH]3)ccc(OC(F)F)c2o1` [Compound 6, 2-[7-Difluoromethoxy-2-(1-methylethyl)benzofuran-4-yl]imidazo[4,5-c]pyridine], the “Inhibition of PDE IV activity, -log IC50” value was 8.38.
In the case of `COc1ccc(-c2nc3cnccc3[nH]2)c2cc(C(C)C)oc12` [Compound 7], the “Inhibition of PDE IV activity, -log IC50” value is reported as 8.09.
